According to patent US10869931B2, “Polyethylene glycol-modified angiogenesis inhibitor HM-1 and application thereof” (NANJING ANJI BIOLOGICAL TECHNOLOGY CO.,LTD, priority 2016, dated 2020):
Marks after values point to notes of the source that are not given here. Where no end group is shown, it is not given here.

What was measured:
Brain tumor cells = experiment: MTT proliferation inhibition, brain tumor cells; format: cell-based, human; design: concentration or dose not given beside the values; settings: 48 h
Protocol: (§1) The activity of mPEG-HM-1 to inhibit the growth of various tumor cells was examined by MTT assay. The tumor cells were cultured to a concentration of 90% or more in a 37° C., 5% CO2 incubator and collected by trypsinization. The cells were resuspended in the culture medium and counted under a microscope to adjust the cell concentration to 2×10^4 cells/mL, the cell suspension was inoculated into a 96-well plate at 100 μL/well and incubated overnight at 37° C. in a 5% CO2 incubator. mPEG-HM-1 was diluted with the culture solution to each predetermined concentration. Docetaxel is diluted to the final concentration with the culture medium. After the cells were fully attached, each dilution was added to a 96-well plate (100 μL/well). The mPEG-HM-1 dilution was added as a drug-administered group, and docetaxel was added as a positive control group, and a culture solution without any drug was used as a negative control group. Incubate for 48 h at 37° C. in a 5% CO2 incubator. 5 mg/mL of MTT was added to a 96-well plate at 20 μL per well, and incubation was continued for 4 hours. The medium was aspirated, dissolved in 150 μL of DMSO per well, and gently mixed by shaking for 10 min. The absorbance was measured at a measurement wavelength of 570 nm and a reference wavelength of 630 nm using a microplate reader, and the rate of growth inhibition (proliferation inhibition, PI) was calculated. The formula is as follows: PI (%)=1−administration group/negative group
(§2) The test was repeated 3 times independently, and the results obtained by the test were expressed as mean±SD, and the test results are shown in Table 15 to Table 18.

[1] = test system: Esophageal cancer tumor cells; experiment: MTT proliferation inhibition, esophageal cancer cells; format: cell-based, human; design: concentration or dose not given beside the values; settings: 48 h
Protocol: as §1, §2

[2] = test system: Breast cancer tumor cells; experiment: MTT proliferation inhibition, breast cancer cells; format: cell-based, human; design: concentration or dose not given beside the values; settings: 48 h
Protocol: as §1, §2

[3] = test system: Colorectal cancer tumor cells; experiment: MTT proliferation inhibition, colorectal cancer cells; format: cell-based, human; design: concentration or dose not given beside the values; settings: 48 h
Protocol: as §1, §2

[4] = test system: Prostate cancer tumor cells; experiment: MTT proliferation inhibition, prostate cancer cells; format: cell-based, human; design: concentration or dose not given beside the values; settings: 48 h
Protocol: as §1, §2

Hemangioma tumor cells = experiment: MTT proliferation inhibition, hemangioma cells; format: cell-based, human; design: concentration or dose not given beside the values; settings: 48 h
Protocol: as §1, §2

[5] = test system: Human Umbilical Vein Endothelial Cells (HUVEC); experiment: Transwell migration of HUVEC; format: cell-based; settings: 24 h
Protocol: 10 mg/mL Matrigel was diluted 1:2 with HUVEC-specific medium, spread on a transwell chamber membrane, and air-dried at room temperature. HUVEC cells cultured in logarithmic growth phase were digested with trypsin digest, collected, washed twice with PBS, and resuspended in blank HUVECs-specific medium. The cells were counted under a microscope, and the cell concentration was adjusted to 1×10^5/mL. The test solutions of each group were prepared and diluted to 100 μL with a blank HUVECs-specific medium. The cells were seeded into a transwell chamber at 100 μL per well, and each set of test solution was added to the chamber. The cell culture was stimulated by adding 0.6 mL of endothelial cell culture medium containing 5% fetal bovine serum and 1% ECGS into a 24-well plate, and cultured at 5% CO2 for 24 hour at 37° c. Discard the culture medium in the well, fix it with 90% alcohol at room temperature for 30 minutes, 0.1% crystal violet for 10 min at room temperature, rinse with water, gently wipe off the unsprayed cells in the upper layer with a cotton swab, observe under microscope and select four fields to take pictures. Calculate migration inhibition (MI) according to the formula: […]
Ntest was the number of cell migration in the test group, and Ncontrol was the number of cell migration in the blank control group.
The test was repeated 3 times independently. The results obtained from the test were calculated as mean±SD, and a statistical T test was performed. *P<0.05 was a significant difference, and **P<0.01 was a very significant difference.

[6] = test system: collagen induced arthritis (CIA) in DBA/1 mice; experiment: Collagen-induced mouse arthritis (CIA) model; format: in vivo; settings: CIA DBA/1 mice; for Clinical score: maximum score 16
[7] = test system: carrageenan-induced toe swelling in SD rats; experiment: Carrageenan-induced acute toe swelling in rats; format: in vivo, rat; design: Swelling: unit not given here
Protocol: SD rats were divided into blank model group, dexamethasone-positive group (5 mg/kg) and mPEG-HM-1 test group. The drug was administered once a day, and the model group was given the same volume of normal saline for 3 days and fed normally. At the first hour after the last administration, 0.1 mL of 1% carrageenan was injected subcutaneously into the right hind paw of the rats to induce inflammation. The volume of the foot was measured at 1 h, 3 h, 5 h, and 7 h after inflammation. The degree of swelling of the foot was calculated according to the following formula: the degree of swelling of the foot (mL)=the volume of the foot after inflammation−the volume before inflammation. Record the number of milliliters of spilled liquid (method: use the ballpoint pen to circle as the measurement mark at the protruding point of the right joint, and then put the right hind foot of each mouse into the volume measuring device, so that the hind limb is exposed outside the cylinder, and the depth of the immersion was determined by coinciding the circle with the liquid surface. After the foot enters the liquid, the liquid level rises, and the volume of the overflow liquid is the volume of the right hind foot of the rat, and the normal volume of the right hind foot of each mouse is sequentially determined).

[8] = 80 mg/kg subcutaneous from day 30 of modeling
[9] = 10 mg/kg subcutaneous from day 30 of modeling

Question: Which results are given for “mPEG-SC40k-Arg-Gly-Ala-Asp-Arg-Ala-Gly-Gly-Gly-Gly-Arg-Gly-Asp ({mPEG‑SC 40 kDa}-RGADRAGGGGRGD) [mPEG-SC40k-HM-1]”?
Answer: rate of growth inhibition (Brain tumor cells): 52.89 ± 15.41%; rate of growth inhibition [1]: 52.12 ± 12.35%; rate of growth inhibition [2]: 50.12 ± 18.09%; rate of growth inhibition [3]: 62.45 ± 19.22%; rate of growth inhibition [4]: 45.93 ± 12.72%; rate of growth inhibition (Hemangioma tumor cells): 53.36 ± 15.09%; cell migration number (Mean ± SD) ([5]; 90 μg/mL): 632.63 ± 58.69; inhibition rate of HUVEC migration ([5]; 90 μg/mL): 40.36%*; cell migration number (Mean ± SD) ([5]; 100 μg/mL): 501.84 ± 62.84; inhibition rate of HUVEC migration ([5]; 100 μg/mL): 52.69%; cell migration number (Mean ± SD) ([5]; 110 μg/mL): 464.50 ± 48.47; inhibition rate of HUVEC migration ([5]; 110 μg/mL): 56.21%; cell migration number (Mean ± SD) ([5]; 120 μg/mL): 542.89 ± 49.29; inhibition rate of HUVEC migration ([5]; 120 μg/mL): 48.82%*; Joint swelling [6, 8]: 0.80 ± 0.16 mm; Left and right paw swelling [6, 8]: 0.80 ± 0.16 mm; Clinical score [6, 8]: 9.09 ± 1.33; Swelling ([7]; 80 mg/kg once a day for 3 days, 1 h after carrageenan): 0.25 ± 0.13; Swelling ([7]; 80 mg/kg once a day for 3 days, 3 h after carrageenan): 0.34 ± 0.12; Swelling ([7]; 80 mg/kg once a day for 3 days, 5 h after carrageenan): 0.44 ± 0.15; Swelling ([7]; 80 mg/kg once a day for 3 days, 7 h after carrageenan): 0.34 ± 0.16; Swelling ([7]; 160 mg/kg once a day for 3 days, 1 h after carrageenan): 0.24 ± 0.12; Swelling ([7]; 160 mg/kg once a day for 3 days, 3 h after carrageenan): 0.33 ± 0.13; Swelling ([7]; 160 mg/kg once a day for 3 days, 5 h after carrageenan): 0.43 ± 0.12; Swelling ([7]; 160 mg/kg once a day for 3 days, 7 h after carrageenan): 0.33 ± 0.13

Question: Which “rate of growth inhibition” value (Brain tumor cells) does the source give for “mPEG-SC5k-Arg-Gly-Ala-Asp-Arg-Ala-Gly-Gly-Gly-Gly-Arg-Gly-Asp ({mPEG‑SC 5 kDa}-RGADRAGGGGRGD) [mPEG-SC5k-HM-1]” here?
Answer: Its value is 42.18 ± 12.29%.

Question: What about the “rate of growth inhibition” value [1] of the same substance?
Answer: Its value is 44.38 ± 10.72%.

Question: What about the “rate of growth inhibition” value [2] of the same substance?
Answer: Its value is 48.13 ± 12.17%.

Question: What about the “rate of growth inhibition” value [3] of the same substance?
Answer: The value was 55.35 ± 12.82%.

Question: And the “rate of growth inhibition” value [4]?
Answer: The value was 38.37 ± 15.61%.

Question: And the “rate of growth inhibition” value (Hemangioma tumor cells)?
Answer: The value was 43.68 ± 12.53%.

Question: And the “cell migration number (Mean ± SD)” value ([5]; 30 μg/mL)?
Answer: The value was 617.03 ± 60.97.

Question: And the “inhibition rate of HUVEC migration” value ([5]; 30 μg/mL)?
Answer: The value was 41.83%*.

Question: And the “cell migration number (Mean ± SD)” value ([5]; 40 μg/mL)?
Answer: Its value is 517.43 ± 50.39.

Question: What about the “inhibition rate of HUVEC migration” value ([5]; 40 μg/mL) of the same substance?
Answer: Its value is 51.22%.

Question: What about the “cell migration number (Mean ± SD)” value ([5]; 50 μg/mL) of the same substance?
Answer: The value was 469.59 ± 48.95.

Question: And the “inhibition rate of HUVEC migration” value ([5]; 50 μg/mL)?
Answer: Its value is 55.73%.

Question: And the “cell migration number (Mean ± SD)” value ([5]; 60 μg/mL)?
Answer: Its value is 601.65 ± 60.73.

Question: And the “inhibition rate of HUVEC migration” value ([5]; 60 μg/mL)?
Answer: The value was 43.28%*.

Question: What about the Joint swelling [6, 9] of the same substance?
Answer: The Joint swelling was 0.81 ± 0.12 mm.

Question: What about the “Left and right paw swelling” value [6, 9] of the same substance?
Answer: Its value is 0.79 ± 0.11 mm.

Question: And the Clinical score [6, 9]?
Answer: The Clinical score was 9.10 ± 1.27.

Question: What about the Swelling ([7]; 10 mg/kg once a day for 3 days, 1 h after carrageenan) of the same substance?
Answer: The Swelling was 0.24 ± 0.12.

Question: What about the Swelling ([7]; 10 mg/kg once a day for 3 days, 3 h after carrageenan) of the same substance?
Answer: Its Swelling is 0.37 ± 0.14.

Question: And the Swelling ([7]; 10 mg/kg once a day for 3 days, 5 h after carrageenan)?
Answer: The Swelling was 0.42 ± 0.16.

Question: And the Swelling ([7]; 10 mg/kg once a day for 3 days, 7 h after carrageenan)?
Answer: Its Swelling is 0.32 ± 0.13.

Question: And the Swelling ([7]; 20 mg/kg once a day for 3 days, 1 h after carrageenan)?
Answer: The Swelling was 0.23 ± 0.10.

Question: And the Swelling ([7]; 20 mg/kg once a day for 3 days, 3 h after carrageenan)?
Answer: The Swelling was 0.33 ± 0.20.

Question: What about the Swelling ([7]; 20 mg/kg once a day for 3 days, 5 h after carrageenan) of the same substance?
Answer: Its Swelling is 0.38 ± 0.13.

Question: What about the Swelling ([7]; 20 mg/kg once a day for 3 days, 7 h after carrageenan) of the same substance?
Answer: The Swelling was 0.34 ± 0.15.
